Test results as given in ChEMBL document CHEMBL4196088, “Induction of cell killing and autophagy by amphiphilic pyrrolidine derivatives on human pancreatic cancer cells” (Eur J Med Chem, 2018).

Test system: PANC-1
Experiment: Induction of apoptosis in human PANC1 cells assessed as accumulation at sub-G0/G1 phase at 10 uM after 48 hrs by propidium iodide staining based flow cytometry (reference value: 0.2 to 2.9%)
Assay type: functional
Conditions: not given

SMILES | Activity [%]
Cl.O[C@H]1CN[C@H](COCCCCCCCCC/C=C/c2ccc(-c3ccccc3)cc2)C1 | 23.2

Test system: PK9
Experiment: Induction of apoptosis in human PK9 cells assessed as accumulation at sub-G0/G1 phase at 10 uM after 24 hrs by propidium iodide staining based flow cytometry (reference value: 2.2%)
Assay type: functional
Conditions: not given

SMILES | Activity [%]
Cl.O[C@H]1CN[C@H](COCCCCCCCCC/C=C/c2ccc(-c3ccccc3)cc2)C1 | 9.6

Test system: BXPC-3
Experiment: Induction of apoptosis in human BxPC3 cells assessed as accumulation at sub-G0/G1 phase harboring pSFFV-Bcl-XL at 20 uM after 48 hrs by propidium iodide staining based flow cytometry (reference value: 1.3%)
Assay type: functional
Conditions: not given

SMILES | Activity [%]
Cl.O[C@H]1CN[C@H](COCCCCCCCCC/C=C/c2ccc(-c3ccccc3)cc2)C1 | 11.4

Test system: PANC-1
Experiment: Induction of apoptosis in human PANC1 cells assessed as accumulation at sub-G0/G1 phase at 20 uM after 72 hrs by propidium iodide staining based flow cytometry (reference value: 1.6 to 3.2%)
Assay type: functional
Conditions: not given

SMILES | Activity [%]
Cl.O[C@H]1CN[C@H](COCCCCCCCCC/C=C/c2ccc(-c3ccccc3)cc2)C1 | 66.2

Test system: not listed separately
Experiment: Induction of apoptosis in HPNE cells assessed as accumulation at sub-G0/G1 phase at 10 uM after 24 hrs by propidium iodide staining based flow cytometry (reference value: 0.6%)
Assay type: cell-based
Conditions: human

SMILES | Activity [%]
Cl.O[C@H]1CN[C@H](COCCCCCCCCC/C=C/c2ccc(-c3ccccc3)cc2)C1 | 80.6

Test system: BXPC-3
Experiment: Induction of apoptosis in human BxPC3 cells assessed as accumulation at sub-G0/G1 phase harboring pSFFV-Bcl-XL at 20 uM after 24 hrs by propidium iodide staining based flow cytometry (reference value: 1.2%)
Assay type: functional
Conditions: not given

SMILES | Activity [%]
Cl.O[C@H]1CN[C@H](COCCCCCCCCC/C=C/c2ccc(-c3ccccc3)cc2)C1 | 7.3

Test system: PK9
Experiment: Induction of apoptosis in human PK9 cells assessed as accumulation at sub-G0/G1 phase at 20 uM after 72 hrs by propidium iodide staining based flow cytometry (reference value: 4%)
Assay type: functional
Conditions: not given

SMILES | Activity [%]
Cl.O[C@H]1CN[C@H](COCCCCCCCCC/C=C/c2ccc(-c3ccccc3)cc2)C1 | 84.9

Test system: not listed separately
Experiment: Induction of apoptosis in HPNE cells assessed as accumulation at sub-G0/G1 phase at 10 uM after 48 hrs by propidium iodide staining based flow cytometry (reference value: 0.7%)
Assay type: cell-based
Conditions: human

SMILES | Activity [%]
Cl.O[C@H]1CN[C@H](COCCCCCCCCC/C=C/c2ccc(-c3ccccc3)cc2)C1 | 83.5

Test system: PANC-1
Experiment: Induction of apoptosis in human PANC1 cells assessed as accumulation at sub-G0/G1 phase at 20 uM after 48 hrs by propidium iodide staining based flow cytometry (reference value: 0.2 to 2.9%)
Assay type: functional
Conditions: not given

SMILES | Activity [%]
Cl.O[C@H]1CN[C@H](COCCCCCCCCC/C=C/c2ccc(-c3ccccc3)cc2)C1 | 38

Test system: BXPC-3
Experiment: Induction of apoptosis in human BxPC3 cells assessed as accumulation at sub-G0/G1 phase at 20 uM after 72 hrs by propidium iodide staining based flow cytometry (reference value: 3.4%)
Assay type: functional
Conditions: not given

SMILES | Activity [%]
Cl.O[C@H]1CN[C@H](COCCCCCCCCC/C=C/c2ccc(-c3ccccc3)cc2)C1 | 72

Test system: Fibroblast
Experiment: Induction of apoptosis in human primary fibroblasts at 20 uM after 24 hrs by propidium iodide staining based flow cytometry (reference value: 4.8%)
Assay type: cell-based
Conditions: not given

SMILES | Activity [%]
Cl.O[C@H]1CN[C@H](COCCCCCCCCC/C=C/c2ccc(-c3ccccc3)cc2)C1 | 17.2

Test system: BXPC-3
Experiment: Induction of apoptosis in human BxPC3 cells assessed as accumulation at sub-G0/G1 phase at 20 uM after 48 hrs by propidium iodide staining based flow cytometry (reference value: 2.8%)
Assay type: functional
Conditions: not given

SMILES | Activity [%]
Cl.O[C@H]1CN[C@H](COCCCCCCCCC/C=C/c2ccc(-c3ccccc3)cc2)C1 | 59.3

Test system: Fibroblast
Experiment: Induction of apoptosis in human primary fibroblasts at 20 uM after 72 hrs by propidium iodide staining based flow cytometry (reference value: 6.7%)
Assay type: cell-based
Conditions: not given

SMILES | Activity [%]
Cl.O[C@H]1CN[C@H](COCCCCCCCCC/C=C/c2ccc(-c3ccccc3)cc2)C1 | 33.7

Test system: PK9
Experiment: Induction of apoptosis in human PK9 cells assessed as accumulation at sub-G0/G1 phase at 20 uM after 24 hrs by propidium iodide staining based flow cytometry (reference value: 2.2%)
Assay type: functional
Conditions: not given

SMILES | Activity [%]
Cl.O[C@H]1CN[C@H](COCCCCCCCCC/C=C/c2ccc(-c3ccccc3)cc2)C1 | 35.1

Test system: Fibroblast
Experiment: Induction of apoptosis in human primary fibroblasts assessed as accumulation at sub-G0/G1 phase at 10 uM after 72 hrs by propidium iodide staining based flow cytometry (reference value: 6.7%)
Assay type: cell-based
Conditions: not given

SMILES | Activity [%]
Cl.O[C@H]1CN[C@H](COCCCCCCCCC/C=C/c2ccc(-c3ccccc3)cc2)C1 | 22.1

Test system: not listed separately
Experiment: Induction of apoptosis in HPNE cells assessed as accumulation at sub-G0/G1 phase at 20 uM after 72 hrs by propidium iodide staining based flow cytometry (reference value: 6.6%)
Assay type: cell-based
Conditions: human

SMILES | Activity [%]
Cl.O[C@H]1CN[C@H](COCCCCCCCCC/C=C/c2ccc(-c3ccccc3)cc2)C1 | 98.3

Test system: Fibroblast
Experiment: Induction of apoptosis in human primary fibroblasts at 20 uM after 48 hrs by propidium iodide staining based flow cytometry (reference value: 6.1%)
Assay type: cell-based
Conditions: not given

SMILES | Activity [%]
Cl.O[C@H]1CN[C@H](COCCCCCCCCC/C=C/c2ccc(-c3ccccc3)cc2)C1 | 21.7

Test system: BXPC-3
Experiment: Induction of apoptosis in human BxPC3 cells assessed as accumulation at sub-G0/G1 phase harboring pSFFV-Bcl-XL at 20 uM after 72 hrs by propidium iodide staining based flow cytometry (reference value: 1.3%)
Assay type: functional
Conditions: not given

SMILES | Activity [%]
Cl.O[C@H]1CN[C@H](COCCCCCCCCC/C=C/c2ccc(-c3ccccc3)cc2)C1 | 49.7

Test system: BXPC-3
Experiment: Induction of apoptosis in human BxPC3 cells harboring pSFFV-Bcl-XL assessed as accumulation at sub-G0/G1 phase at 10 uM after 72 hrs by propidium iodide staining based flow cytometry (reference value: 2%)
Assay type: functional
Conditions: not given

SMILES | Activity [%]
Cl.O[C@H]1CN[C@H](COCCCCCCCCC/C=C/c2ccc(-c3ccccc3)cc2)C1 | 15.7

Test system: BXPC-3
Experiment: Induction of apoptosis in human BxPC3 cells assessed as accumulation at sub-G0/G1 phase at 10 uM after 48 hrs by propidium iodide staining based flow cytometry (reference value: 2.8%)
Assay type: functional
Conditions: not given

SMILES | Activity [%]
Cl.O[C@H]1CN[C@H](COCCCCCCCCC/C=C/c2ccc(-c3ccccc3)cc2)C1 | 34.6

Test system: BXPC-3
Experiment: Induction of apoptosis in human BxPC3 cells harboring pSFFV-Bcl-XL assessed as accumulation at sub-G0/G1 phase at 10 uM after 48 hrs by propidium iodide staining based flow cytometry (reference value: 1.9%)
Assay type: functional
Conditions: not given

SMILES | Activity [%]
Cl.O[C@H]1CN[C@H](COCCCCCCCCC/C=C/c2ccc(-c3ccccc3)cc2)C1 | 10

Test system: Fibroblast
Experiment: Induction of apoptosis in human primary fibroblasts assessed as accumulation at sub-G0/G1 phase at 10 uM after 48 hrs by propidium iodide staining based flow cytometry (reference value: 6.1%)
Assay type: cell-based
Conditions: not given

SMILES | Activity [%]
Cl.O[C@H]1CN[C@H](COCCCCCCCCC/C=C/c2ccc(-c3ccccc3)cc2)C1 | 11.7

Test system: not listed separately
Experiment: Induction of apoptosis in HPNE cells assessed as accumulation at sub-G0/G1 phase at 20 uM after 24 hrs by propidium iodide staining based flow cytometry (reference value: 0.6%)
Assay type: cell-based
Conditions: human

SMILES | Activity [%]
Cl.O[C@H]1CN[C@H](COCCCCCCCCC/C=C/c2ccc(-c3ccccc3)cc2)C1 | 83.1

Test system: BXPC-3
Experiment: Induction of apoptosis in human BxPC3 cells assessed as accumulation at sub-G0/G1 phase at 10 uM after 72 hrs by propidium iodide staining based flow cytometry (reference value: 3.4%)
Assay type: functional
Conditions: not given

SMILES | Activity [%]
Cl.O[C@H]1CN[C@H](COCCCCCCCCC/C=C/c2ccc(-c3ccccc3)cc2)C1 | 59.3

Test system: PK9
Experiment: Induction of apoptosis in human PK9 cells assessed as accumulation at sub-G0/G1 phase at 10 uM after 48 hrs by propidium iodide staining based flow cytometry (reference value: 3.8%)
Assay type: functional
Conditions: not given

SMILES | Activity [%]
Cl.O[C@H]1CN[C@H](COCCCCCCCCC/C=C/c2ccc(-c3ccccc3)cc2)C1 | 30.4

Test system: PANC-1
Experiment: Induction of apoptosis in human PANC1 cells assessed as accumulation at sub-G0/G1 phase at 10 uM after 24 hrs by propidium iodide staining based flow cytometry (reference value: 0.6 to 0.7%)
Assay type: functional
Conditions: not given

SMILES | Activity [%]
Cl.O[C@H]1CN[C@H](COCCCCCCCCC/C=C/c2ccc(-c3ccccc3)cc2)C1 | 8.8

Test system: Fibroblast
Experiment: Induction of apoptosis in human primary fibroblasts assessed as accumulation at sub-G0/G1 phase at 10 uM after 24 hrs by propidium iodide staining based flow cytometry (reference value: 4.8%)
Assay type: cell-based
Conditions: not given

SMILES | Activity [%]
Cl.O[C@H]1CN[C@H](COCCCCCCCCC/C=C/c2ccc(-c3ccccc3)cc2)C1 | 9.5

Test system: HeLa
Experiment: Growth inhibition of human HeLa cells after 72 hrs
Assay type: functional, cell-based
Conditions: not given

SMILES | IC50 [µM]
Cl.O[C@H]1CN[C@H](COCCCCCCCCC/C=C/c2ccc(-c3ccccc3)cc2)C1 | 4

Test system: BXPC-3
Experiment: Induction of apoptosis in human BxPC3 cells assessed as accumulation at sub-G0/G1 phase at 20 uM after 24 hrs by propidium iodide staining based flow cytometry (reference value: 2.3%)
Assay type: functional
Conditions: not given

SMILES | Activity [%]
Cl.O[C@H]1CN[C@H](COCCCCCCCCC/C=C/c2ccc(-c3ccccc3)cc2)C1 | 12.7

Test system: BXPC-3
Experiment: Induction of apoptosis in human BxPC3 cells harboring pSFFV-Bcl-XL assessed as accumulation at sub-G0/G1 phase at 10 uM after 24 hrs by propidium iodide staining based flow cytometry (reference value: 1.5%)
Assay type: functional
Conditions: not given

SMILES | Activity [%]
Cl.O[C@H]1CN[C@H](COCCCCCCCCC/C=C/c2ccc(-c3ccccc3)cc2)C1 | 2.6

Test system: PK9
Experiment: Induction of apoptosis in human PK9 cells assessed as accumulation at sub-G0/G1 phase at 20 uM after 48 hrs by propidium iodide staining based flow cytometry (reference value: 3.8%)
Assay type: functional
Conditions: not given

SMILES | Activity [%]
Cl.O[C@H]1CN[C@H](COCCCCCCCCC/C=C/c2ccc(-c3ccccc3)cc2)C1 | 77.4

Test system: not listed separately
Experiment: Induction of apoptosis in HPNE cells assessed as accumulation at sub-G0/G1 phase at 10 uM after 72 hrs by propidium iodide staining based flow cytometry (reference value: 6.6%)
Assay type: cell-based
Conditions: human

SMILES | Activity [%]
Cl.O[C@H]1CN[C@H](COCCCCCCCCC/C=C/c2ccc(-c3ccccc3)cc2)C1 | 93.4

Test system: PANC-1
Experiment: Induction of apoptosis in human PANC1 cells assessed as accumulation at sub-G0/G1 phase at 20 uM after 24 hrs by propidium iodide staining based flow cytometry (reference value: 0.6 to 0.7%)
Assay type: functional
Conditions: not given

SMILES | Activity [%]
Cl.O[C@H]1CN[C@H](COCCCCCCCCC/C=C/c2ccc(-c3ccccc3)cc2)C1 | 17.6

Test system: not listed separately
Experiment: Induction of apoptosis in HPNE cells assessed as accumulation at sub-G0/G1 phase at 20 uM after 48 hrs by propidium iodide staining based flow cytometry (reference value: 0.7%)
Assay type: cell-based
Conditions: human

SMILES | Activity [%]
Cl.O[C@H]1CN[C@H](COCCCCCCCCC/C=C/c2ccc(-c3ccccc3)cc2)C1 | 93.5

Test system: PANC-1
Experiment: Induction of apoptosis in human PANC1 cells assessed as accumulation at sub-G0/G1 phase at 10 uM after 72 hrs by propidium iodide staining based flow cytometry (reference value: 1.6 to 3.2%)
Assay type: functional
Conditions: not given

SMILES | Activity [%]
Cl.O[C@H]1CN[C@H](COCCCCCCCCC/C=C/c2ccc(-c3ccccc3)cc2)C1 | 56.2

Test system: PK9
Experiment: Induction of apoptosis in human PK9 cells assessed as accumulation at sub-G0/G1 phase at 10 uM after 72 hrs by propidium iodide staining based flow cytometry (reference value: 4%)
Assay type: functional
Conditions: not given

SMILES | Activity [%]
Cl.O[C@H]1CN[C@H](COCCCCCCCCC/C=C/c2ccc(-c3ccccc3)cc2)C1 | 39.4

Test system: BXPC-3
Experiment: Induction of apoptosis in human BxPC3 cells assessed as accumulation at sub-G0/G1 phase at 10 uM after 24 hrs by propidium iodide staining based flow cytometry (reference value: 1.8%)
Assay type: functional
Conditions: not given

SMILES | Activity [%]
Cl.O[C@H]1CN[C@H](COCCCCCCCCC/C=C/c2ccc(-c3ccccc3)cc2)C1 | 22.1
